Results as given in paper doi:10.1101/2020.06.11.145995v1 (biorxiv, 2020).
Where two headings read alike, the source gives them in different places.

What was measured:
Experiment in all cases: biochemical
MEK2 = MEK2 (Homo sapiens, UniProt P36507)
HIPK4 = HIPK4 (Homo sapiens, UniProt Q8NE63)
ACVR1B = ACVR1B (Homo sapiens, UniProt P36896)
CDK9 = CDK9 (Homo sapiens, UniProt P50750)
CAMK2B = CAMK2B (Homo sapiens, UniProt Q13554)
ANKK1 = ANKK1 (Homo sapiens, UniProt Q8NFD2)
FGFR4 = FGFR4 (Homo sapiens, UniProt P22455)
Sequence of FGFR4 (P22455 whole entry): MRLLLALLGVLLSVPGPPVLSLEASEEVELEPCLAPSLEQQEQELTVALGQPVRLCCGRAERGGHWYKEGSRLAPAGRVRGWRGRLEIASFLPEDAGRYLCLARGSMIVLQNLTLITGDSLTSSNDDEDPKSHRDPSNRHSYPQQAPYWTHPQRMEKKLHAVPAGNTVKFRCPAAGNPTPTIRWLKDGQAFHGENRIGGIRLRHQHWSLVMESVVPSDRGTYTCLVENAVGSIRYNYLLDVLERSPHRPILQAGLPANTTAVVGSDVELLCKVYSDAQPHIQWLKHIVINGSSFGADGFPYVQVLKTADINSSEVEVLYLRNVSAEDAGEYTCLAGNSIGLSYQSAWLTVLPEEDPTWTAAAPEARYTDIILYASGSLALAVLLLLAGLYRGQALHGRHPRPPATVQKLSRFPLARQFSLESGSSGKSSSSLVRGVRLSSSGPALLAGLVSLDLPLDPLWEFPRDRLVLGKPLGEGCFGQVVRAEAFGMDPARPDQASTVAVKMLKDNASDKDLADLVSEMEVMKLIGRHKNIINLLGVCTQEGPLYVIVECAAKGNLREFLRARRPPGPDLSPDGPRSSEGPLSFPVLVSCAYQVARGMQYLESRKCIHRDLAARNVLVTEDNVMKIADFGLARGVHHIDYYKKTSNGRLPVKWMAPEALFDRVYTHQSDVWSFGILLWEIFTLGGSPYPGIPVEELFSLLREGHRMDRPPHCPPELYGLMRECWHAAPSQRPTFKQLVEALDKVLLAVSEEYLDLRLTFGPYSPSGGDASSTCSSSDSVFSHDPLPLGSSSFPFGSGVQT

CSK = CSK (Homo sapiens, UniProt P41240)
JNK2 = JNK2 (Homo sapiens, UniProt P45984)
CDK2 = CDK2 (Homo sapiens, UniProt P24941)
[1] = biological target: ABL1(M351T)-phosphorylated (Homo sapiens, UniProt P00519, M351T)
[2] = biological target: ABL1(F317I)-nonphosphorylated (Homo sapiens, UniProt P00519, F317I)
[3] = biological target: ABL1(T315I)-phosphorylated (Homo sapiens, UniProt P00519, T315I)
[4] = biological target: JAK1(JH1domain-catalytic) (Homo sapiens, UniProt P23458)
ABL1-nonphosphorylated = ABL1-nonphosphorylated (Homo sapiens, UniProt P00519)
[5] = biological target: ABL1(H396P)-phosphorylated (Homo sapiens, UniProt P00519, H396P)
[6] = biological target: ABL1(Q252H)-phosphorylated (Homo sapiens, UniProt P00519, Q252H)
[7] = biological target: ABL1(F317I)-phosphorylated (Homo sapiens, UniProt P00519, F317I)
[8] = biological target: JAK3(JH1domain-catalytic) (Homo sapiens, UniProt P52333)
KIT(V559D,V654A) = KIT(V559D,V654A) (Homo sapiens, UniProt P10721, V559D/V654A)
Sequence of KIT(V559D,V654A) (P10721 whole entry V559D/V654A): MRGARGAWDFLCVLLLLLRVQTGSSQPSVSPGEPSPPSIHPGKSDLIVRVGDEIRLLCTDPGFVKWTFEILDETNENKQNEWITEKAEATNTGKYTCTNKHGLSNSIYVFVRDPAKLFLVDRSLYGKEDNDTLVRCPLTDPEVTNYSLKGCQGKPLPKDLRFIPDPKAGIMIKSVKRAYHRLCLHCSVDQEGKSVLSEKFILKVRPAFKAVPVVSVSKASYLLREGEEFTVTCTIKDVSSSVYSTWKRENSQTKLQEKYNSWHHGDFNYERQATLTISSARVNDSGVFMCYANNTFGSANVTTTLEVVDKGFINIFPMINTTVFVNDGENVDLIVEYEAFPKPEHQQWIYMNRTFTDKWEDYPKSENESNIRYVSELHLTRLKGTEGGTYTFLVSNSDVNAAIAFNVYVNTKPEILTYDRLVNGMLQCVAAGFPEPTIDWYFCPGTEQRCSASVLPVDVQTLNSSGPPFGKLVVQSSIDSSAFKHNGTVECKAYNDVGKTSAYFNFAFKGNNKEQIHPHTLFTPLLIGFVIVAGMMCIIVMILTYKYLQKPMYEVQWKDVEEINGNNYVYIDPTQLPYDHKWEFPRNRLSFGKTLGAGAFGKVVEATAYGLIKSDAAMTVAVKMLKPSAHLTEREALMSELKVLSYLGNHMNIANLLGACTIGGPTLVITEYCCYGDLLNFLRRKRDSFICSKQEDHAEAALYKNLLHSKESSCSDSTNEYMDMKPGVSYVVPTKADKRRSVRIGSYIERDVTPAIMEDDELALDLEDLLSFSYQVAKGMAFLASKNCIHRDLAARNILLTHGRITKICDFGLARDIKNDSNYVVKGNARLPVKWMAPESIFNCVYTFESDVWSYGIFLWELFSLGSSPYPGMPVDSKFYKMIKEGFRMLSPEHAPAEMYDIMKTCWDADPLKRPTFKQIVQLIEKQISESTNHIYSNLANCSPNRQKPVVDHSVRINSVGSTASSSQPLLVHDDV

STK33 = STK33 (Homo sapiens, UniProt Q9BYT3)
Sequence of STK33 (Q9BYT3 whole entry): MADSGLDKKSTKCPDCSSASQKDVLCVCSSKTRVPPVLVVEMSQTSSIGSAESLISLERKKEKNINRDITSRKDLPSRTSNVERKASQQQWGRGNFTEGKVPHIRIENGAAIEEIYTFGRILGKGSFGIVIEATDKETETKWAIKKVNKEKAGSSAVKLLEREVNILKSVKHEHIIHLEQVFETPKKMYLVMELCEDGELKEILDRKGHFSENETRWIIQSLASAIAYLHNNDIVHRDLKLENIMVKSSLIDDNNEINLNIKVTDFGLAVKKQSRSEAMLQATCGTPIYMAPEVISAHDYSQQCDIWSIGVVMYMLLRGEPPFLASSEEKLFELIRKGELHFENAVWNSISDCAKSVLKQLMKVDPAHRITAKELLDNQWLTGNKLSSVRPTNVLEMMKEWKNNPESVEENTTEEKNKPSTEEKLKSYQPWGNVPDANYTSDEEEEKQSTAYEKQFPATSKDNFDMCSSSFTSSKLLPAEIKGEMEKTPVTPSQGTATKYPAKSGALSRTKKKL

[9] = biological target: ABL1(F317L)-phosphorylated (Homo sapiens, UniProt P00519, F317L)
DYRK1B = DYRK1B (Homo sapiens, UniProt Q9Y463)
LTK = LTK (Homo sapiens, UniProt P29376)
GCN2(Kin.Dom.2,S808G) = GCN2(Kin.Dom.2,S808G) (Homo sapiens, UniProt Q9P2K8, S808G)
Sequence of GCN2(Kin.Dom.2,S808G) (Q9P2K8 whole entry S808G): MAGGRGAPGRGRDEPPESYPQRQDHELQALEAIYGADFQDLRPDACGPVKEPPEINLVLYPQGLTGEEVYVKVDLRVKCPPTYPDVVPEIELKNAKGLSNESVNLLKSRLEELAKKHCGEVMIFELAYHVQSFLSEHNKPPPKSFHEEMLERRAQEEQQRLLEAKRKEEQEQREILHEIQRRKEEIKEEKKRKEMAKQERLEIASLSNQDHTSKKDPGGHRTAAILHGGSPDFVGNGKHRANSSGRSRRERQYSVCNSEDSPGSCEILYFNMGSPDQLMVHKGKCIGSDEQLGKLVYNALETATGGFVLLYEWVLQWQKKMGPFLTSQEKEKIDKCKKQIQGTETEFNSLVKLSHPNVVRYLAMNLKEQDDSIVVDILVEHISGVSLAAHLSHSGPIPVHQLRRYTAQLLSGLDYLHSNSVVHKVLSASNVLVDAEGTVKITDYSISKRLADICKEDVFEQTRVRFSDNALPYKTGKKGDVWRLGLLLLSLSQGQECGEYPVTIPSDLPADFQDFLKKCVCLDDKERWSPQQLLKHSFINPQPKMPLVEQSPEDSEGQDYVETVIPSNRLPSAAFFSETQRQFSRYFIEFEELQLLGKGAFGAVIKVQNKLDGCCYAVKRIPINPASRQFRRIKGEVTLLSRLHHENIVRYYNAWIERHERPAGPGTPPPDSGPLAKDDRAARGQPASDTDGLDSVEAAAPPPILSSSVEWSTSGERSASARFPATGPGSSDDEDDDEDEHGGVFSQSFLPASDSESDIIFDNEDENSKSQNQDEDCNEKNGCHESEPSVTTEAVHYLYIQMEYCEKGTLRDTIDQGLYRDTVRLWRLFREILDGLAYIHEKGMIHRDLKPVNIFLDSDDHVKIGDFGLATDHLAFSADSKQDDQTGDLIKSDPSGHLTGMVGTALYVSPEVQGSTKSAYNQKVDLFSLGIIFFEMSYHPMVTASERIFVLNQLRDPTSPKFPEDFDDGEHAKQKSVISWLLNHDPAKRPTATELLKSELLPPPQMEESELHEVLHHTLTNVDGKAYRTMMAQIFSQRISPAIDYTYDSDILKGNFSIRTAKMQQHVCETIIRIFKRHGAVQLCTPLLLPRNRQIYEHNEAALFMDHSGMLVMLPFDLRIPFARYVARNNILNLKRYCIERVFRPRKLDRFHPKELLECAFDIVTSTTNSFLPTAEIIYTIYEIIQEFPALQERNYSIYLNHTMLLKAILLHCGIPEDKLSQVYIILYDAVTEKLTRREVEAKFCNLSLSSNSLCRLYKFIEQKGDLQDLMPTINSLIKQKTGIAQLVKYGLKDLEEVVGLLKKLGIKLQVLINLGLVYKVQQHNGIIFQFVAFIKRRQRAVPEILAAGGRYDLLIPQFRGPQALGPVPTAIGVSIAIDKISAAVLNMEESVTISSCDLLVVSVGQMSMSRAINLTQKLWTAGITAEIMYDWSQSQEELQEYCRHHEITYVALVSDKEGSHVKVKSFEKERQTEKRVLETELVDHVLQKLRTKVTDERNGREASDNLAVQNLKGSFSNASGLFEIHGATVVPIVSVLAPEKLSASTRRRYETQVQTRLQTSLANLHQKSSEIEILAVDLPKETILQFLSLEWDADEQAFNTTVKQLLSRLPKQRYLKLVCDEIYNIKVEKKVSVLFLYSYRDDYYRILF

ABL1-phosphorylated = ABL1-phosphorylated (Homo sapiens, UniProt P00519)
[10] = biological target: ABL1(Y253F)-phosphorylated (Homo sapiens, UniProt P00519, Y253F)
[11] = biological target: ABL1(Q252H)-nonphosphorylated (Homo sapiens, UniProt P00519, Q252H)
[12] = read-out: CPT-1-70-1 (1uM) % control
[13] = read-out: HYJ-2-002-1 (1uM) % control

Sequence of HIPK4 (Q8NE63 whole entry): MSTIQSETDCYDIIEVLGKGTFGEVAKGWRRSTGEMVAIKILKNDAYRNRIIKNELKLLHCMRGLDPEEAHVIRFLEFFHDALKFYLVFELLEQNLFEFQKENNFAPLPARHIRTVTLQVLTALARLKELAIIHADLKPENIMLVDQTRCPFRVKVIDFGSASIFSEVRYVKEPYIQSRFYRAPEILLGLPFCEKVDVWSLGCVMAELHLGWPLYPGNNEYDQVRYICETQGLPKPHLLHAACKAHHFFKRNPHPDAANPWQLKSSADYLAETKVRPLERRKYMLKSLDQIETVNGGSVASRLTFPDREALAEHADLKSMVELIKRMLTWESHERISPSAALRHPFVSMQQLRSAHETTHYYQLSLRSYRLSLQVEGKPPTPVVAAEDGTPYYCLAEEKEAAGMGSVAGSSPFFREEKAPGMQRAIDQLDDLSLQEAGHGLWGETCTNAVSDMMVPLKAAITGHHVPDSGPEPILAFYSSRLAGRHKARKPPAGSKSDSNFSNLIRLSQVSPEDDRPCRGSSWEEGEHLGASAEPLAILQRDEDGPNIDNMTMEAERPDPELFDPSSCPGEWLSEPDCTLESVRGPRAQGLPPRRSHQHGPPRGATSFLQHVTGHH
Sequence of MEK2 (P36507 whole entry): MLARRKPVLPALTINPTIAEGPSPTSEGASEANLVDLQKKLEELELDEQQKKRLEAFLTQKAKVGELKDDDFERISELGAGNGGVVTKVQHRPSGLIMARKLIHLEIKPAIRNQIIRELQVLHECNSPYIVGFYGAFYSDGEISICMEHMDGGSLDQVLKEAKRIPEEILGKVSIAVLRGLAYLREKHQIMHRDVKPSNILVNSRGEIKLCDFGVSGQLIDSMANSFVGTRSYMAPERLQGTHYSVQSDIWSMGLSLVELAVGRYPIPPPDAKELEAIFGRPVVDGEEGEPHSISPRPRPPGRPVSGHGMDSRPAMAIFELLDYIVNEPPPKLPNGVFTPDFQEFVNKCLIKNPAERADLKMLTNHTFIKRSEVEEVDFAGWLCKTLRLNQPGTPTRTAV

CN1CCN(c2ccc(Nc3nc(Oc4ccc(NC(=O)CCl)cc4)c4cc[nH]c4n3)cc2)CC1 [CPT1-70-1]
remaining activity at 1 µM (MEK2; [12]): 19% | remaining activity at 1 µM (HIPK4; [12]): 74% | remaining activity at 1 µM (ACVR1B; [12]): 100% | remaining activity at 1 µM (CDK9; [12]): 90% | remaining activity at 1 µM (CAMK2B; [12]): 100% | remaining activity at 1 µM (ANKK1; [12]): 93% | remaining activity at 1 µM (FGFR4; [12]): 60% | remaining activity at 1 µM (CSK; [12]): 93% | remaining activity at 1 µM (JNK2; [12]): 13% | remaining activity at 1 µM (CDK2; [12]): 100% | remaining activity at 1 µM [1, 12]: 86% | remaining activity at 1 µM [2, 12]: 100% | remaining activity at 1 µM [3, 12]: 19% | remaining activity at 1 µM [4, 12]: 77% | remaining activity at 1 µM (ABL1-nonphosphorylated; [12]): 25% | remaining activity at 1 µM [5, 12]: 100% | remaining activity at 1 µM [6, 12]: 100% | remaining activity at 1 µM [7, 12]: 100% | remaining activity at 1 µM [8, 12]: 0% | remaining activity at 1 µM (KIT(V559D,V654A); [12]): 100% | remaining activity at 1 µM (STK33; read-out: CPT-1-70-1 (1μM) % control): 10% | remaining activity at 1 µM [9, 12]: 99% | remaining activity at 1 µM (DYRK1B; [12]): 79% | remaining activity at 1 µM (LTK; [12]): 100% | remaining activity at 1 µM (GCN2(Kin.Dom.2,S808G); [12]): 13% | remaining activity at 1 µM (ABL1-phosphorylated; [12]): 51% | remaining activity at 1 µM [10, 12]: 100% | remaining activity at 1 µM [11, 12]: 52%

CCN1CCN(Cc2ccc(NC(=O)c3ccc(C)c(CCc4cnc5[nH]ccc5c4OC)c3)cc2C(F)(F)F)CC1 [HYJ-2-002-1]
remaining activity at 1 µM (MEK2; [13]): 22% | remaining activity at 1 µM (HIPK4; [13]): 2.6% | remaining activity at 1 µM (ACVR1B; [13]): 100% | remaining activity at 1 µM (CDK9; [13]): 100% | remaining activity at 1 µM (CAMK2B; [13]): 74% | remaining activity at 1 µM (ANKK1; [13]): 9.4% | remaining activity at 1 µM (FGFR4; [13]): 4.4% | remaining activity at 1 µM (CSK; [13]): 0.8% | remaining activity at 1 µM (JNK2; [13]): 1.8% | remaining activity at 1 µM (CDK2; [13]): 100% | remaining activity at 1 µM [1, 13]: 0.85% | remaining activity at 1 µM [2, 13]: 0% | remaining activity at 1 µM [3, 13]: 0.75% | remaining activity at 1 µM [4, 13]: 41% | remaining activity at 1 µM (ABL1-nonphosphorylated; [13]): 0.05% | remaining activity at 1 µM [5, 13]: 0.1% | remaining activity at 1 µM [6, 13]: 1% | remaining activity at 1 µM [7, 13]: 34% | remaining activity at 1 µM [8, 13]: 2.4% | remaining activity at 1 µM (KIT(V559D,V654A); [13]): 28% | remaining activity at 1 µM (STK33; read-out: HYJ-2-002-1 (1μM) % control): 66% | remaining activity at 1 µM [9, 13]: 2% | remaining activity at 1 µM (DYRK1B; [13]): 76% | remaining activity at 1 µM (LTK; [13]): 89% | remaining activity at 1 µM (GCN2(Kin.Dom.2,S808G); [13]): 14% | remaining activity at 1 µM (ABL1-phosphorylated; [13]): 0.1% | remaining activity at 1 µM [10, 13]: 0.7% | remaining activity at 1 µM [11, 13]: 0.05%
